Source: patent publication US20110039793A1, “Application of ginsenoside Rb1 in preparing medicaments for treating dilated cardiomyopathy” (priority 2008, published 2011)

What was measured:
[1] = test system: cTnT^R141W transgenic dilated cardiomyopathy mice model; experiment: Cardiac microstructure, HE and Masson staining, light microscope; assay type: in vivo; conditions: long-term administration, vs model group
Procedure: Effects on the cardiac microstructure of the mice model after a long-term administration of ginsenoside Rb1 (HE and Masson staining)
1) Fix the heart and treated in a standard pathological procedure.
3) Composite staining solution for 5 min;
4) Slightly washed by 0.2% acetic acid solution;
5) 5% phosphotungstic acid for 5-10 min;
6) Immersion cleaning twice by 0.2% acetic acid solution;
7) Brilliant green staining solution for 5 min, immersion cleaning twice by 0.2% acetic acid solution;
8) Ethanol dehydration, xylene transparent and sealed with neutral gum;
9) Observed under light microscope, collagen fibers show green, muscle fibers show red and red blood cells show nacarat.

[2] = test system: cTnT^R141W transgenic dilated cardiomyopathy mice model; experiment: Left ventricular ultrastructure, electron microscopy; assay type: in vivo; conditions: long-term administration
From the text: Effects on the left ventricular ultrastructure of the mice model with dilated cardiomyopathy after a long-term administration of ginsenoside Rb1 (electron microscopy)
Fresh myocardial tissues are fixed with 2.5% glutaraldehyde solution, then post-fixed by 1% osmic acid, embedded by Epon812 after the acetone gradient dehydration, wherein the embedded number is five Epon812 per case, ultra-thin sections are double stained by uranyl acetate and lead citrate, and observing by JEM1230 type projection electron microscope. The apparatuses are JEM1230 type projection electron microscope (Japanese Electronics Company), LEICA UCT type microtome (Germany Leica Company).

CC(C)=CCC[C@](C)(O[C@@H]1O[C@H](CO[C@@H]2O[C@H](CO)[C@@H](O)[C@H](O)[C@H]2O)[C@@H](O)[C@H](O)[C@H]1O)[C@H]1CC[C@]2(C)[C@@H]1[C@H](O)C[C@@H]1[C@@]3(C)CC[C@H](O[C@@H]4O[C@H](CO)[C@@H](O)[C@H](O)[C@H]4O[C@@H]4O[C@H](CO)[C@@H](O)[C@H](O)[C@H]4O)C(C)(C)[C@@H]3CC[C@]12C [Rb1, ginsenoside Rb1]
proliferation of interstitial collagen ([1]; Masson staining): significantly decreased
hypertrophy and disordered arrangement of the myocytes ([1]; light microscope): improved
intercalated disc structure [2]: clear
mitochondrial structures [2]: most mitochondrial structures are normal
myocytes structure [2]: clear structures
sarcoplasmic reticulum [2]: slightly dilated
